Laboratory results reported in ChEMBL document CHEMBL1201862, “PubChem BioAssay data set” (2004).
The source made the active and inactive calls.

Legend:
[1] = molecular target: Envelope glycoprotein gp160 (Human immunodeficiency virus 1, UniProt Q6QLK5); assay: inhibitors of HIV fusion peptide binding, primary screen, biochemical, uHTS, fluorescence dequenching (AID 1986)
Genome polyprotein = Genome polyprotein (dengue virus type 2, UniProt P29990); assay: Dengue-2 NS5 methyltransferase inhibitors, primary screen, biochemical, confirmation dose response (AID 588689); assay type: functional
[2] = molecular target: T1, Rac GTPase-activating protein 1 (Homo sapiens, UniProt Q9H0H5); assay: MgcRacGAP GTPase-activating activity inhibitors, confirmation, biochemical, ADP Hunter fluorescence, primary and confirmatory (AID 624330); assay type: functional
T1 sequence (Q9H0H5 whole entry): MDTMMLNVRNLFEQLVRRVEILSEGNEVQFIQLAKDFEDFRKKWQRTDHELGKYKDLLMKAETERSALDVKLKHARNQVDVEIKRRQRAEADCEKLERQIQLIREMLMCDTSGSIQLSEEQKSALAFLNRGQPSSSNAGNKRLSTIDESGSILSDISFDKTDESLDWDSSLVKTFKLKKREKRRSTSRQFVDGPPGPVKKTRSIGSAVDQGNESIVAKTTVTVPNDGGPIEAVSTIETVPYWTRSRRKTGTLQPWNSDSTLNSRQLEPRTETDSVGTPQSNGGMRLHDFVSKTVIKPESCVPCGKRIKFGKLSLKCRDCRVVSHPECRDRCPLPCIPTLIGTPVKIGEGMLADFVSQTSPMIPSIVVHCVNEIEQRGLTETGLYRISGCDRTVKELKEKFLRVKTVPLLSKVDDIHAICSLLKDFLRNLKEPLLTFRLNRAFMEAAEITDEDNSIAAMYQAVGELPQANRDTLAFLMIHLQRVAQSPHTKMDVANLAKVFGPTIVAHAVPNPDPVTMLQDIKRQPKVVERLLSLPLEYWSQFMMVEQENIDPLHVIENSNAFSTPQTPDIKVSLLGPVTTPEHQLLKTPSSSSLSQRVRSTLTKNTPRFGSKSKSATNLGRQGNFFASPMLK

[3] = molecular target: T2, Type-1 angiotensin II receptor (Homo sapiens, UniProt P30556); assay: AT1 receptor agonists, dose response, selectivity assay for APJ receptor agonist project, cell-based, uHTS hits (AID 488865); assay type: functional;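 note: beta-arrestin recruitment to AT1 measured by enzyme fragment complementation luminescence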
T2 sequence (P30556 whole entry): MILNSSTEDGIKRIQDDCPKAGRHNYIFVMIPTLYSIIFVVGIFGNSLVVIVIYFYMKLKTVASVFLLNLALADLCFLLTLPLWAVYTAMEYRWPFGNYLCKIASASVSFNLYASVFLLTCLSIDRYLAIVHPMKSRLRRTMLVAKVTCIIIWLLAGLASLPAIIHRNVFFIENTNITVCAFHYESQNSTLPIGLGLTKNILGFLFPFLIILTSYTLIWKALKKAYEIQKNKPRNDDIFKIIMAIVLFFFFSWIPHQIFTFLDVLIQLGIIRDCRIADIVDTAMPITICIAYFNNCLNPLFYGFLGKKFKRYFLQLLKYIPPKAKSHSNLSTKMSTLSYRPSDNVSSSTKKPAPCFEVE

[4] = molecular target: G-protein coupled receptor 55 (Homo sapiens, UniProt Q9Y2T6); assay: GPR55 agonists via beta-arrestin recruitment, primary screen, imaging, U2OS cells, beta-arrestin-GFP redistribution (AID 1961); assay type: functional
Cysteine protease ATG4B = molecular target: T3, Cysteine protease ATG4B (Homo sapiens, UniProt Q9Y4P1); assay type: functional;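 note: Fluorescence-based dose-response confirmation assay measuring inhibition of ATG4B activity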
T3 sequence (Q9Y4P1 whole entry): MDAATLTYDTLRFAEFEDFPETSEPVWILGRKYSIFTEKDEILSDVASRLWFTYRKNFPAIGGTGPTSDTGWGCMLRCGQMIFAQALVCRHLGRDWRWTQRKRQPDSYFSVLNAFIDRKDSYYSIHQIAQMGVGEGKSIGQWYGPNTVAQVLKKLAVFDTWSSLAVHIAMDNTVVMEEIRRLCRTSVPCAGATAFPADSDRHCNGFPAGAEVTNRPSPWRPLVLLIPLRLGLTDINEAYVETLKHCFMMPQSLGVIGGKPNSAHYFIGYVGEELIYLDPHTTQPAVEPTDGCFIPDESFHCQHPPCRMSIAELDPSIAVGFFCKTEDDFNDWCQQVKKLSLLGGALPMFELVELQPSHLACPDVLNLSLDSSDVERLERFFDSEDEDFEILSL

Phospholipase A2 = Phospholipase A2 (Homo sapiens, UniProt P04054); assay type: functional;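 note: confirmatory dose-response counterscreen on phospholipase A2, testing hits that came from an ultra-high-throughput screen for ATG4B inhibitors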
Cytochrome P450 2C9 = Cytochrome P450 2C9 (Homo sapiens, UniProt P11712)
[5] = inhibitors of firefly luciferase expression or activity, dose response, H4 neuroglioma cells, luminescence (AID 1990); assay type: functional, cell-based
[6] = inhibitors of SNCA 5'UTR-driven reporter translation, confirmation, H4 neuroglioma cells, luminescence (AID 1988); assay type: functional, cell-based
X-box-binding protein 1 = X-box-binding protein 1 (Homo sapiens, UniProt P17861); assay type: functional, Cricetulus griseus;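 note: confirmatory dose-response counter-screen serving a CHOP assay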
Chain of X-box-binding protein 1 (P17861 whole entry): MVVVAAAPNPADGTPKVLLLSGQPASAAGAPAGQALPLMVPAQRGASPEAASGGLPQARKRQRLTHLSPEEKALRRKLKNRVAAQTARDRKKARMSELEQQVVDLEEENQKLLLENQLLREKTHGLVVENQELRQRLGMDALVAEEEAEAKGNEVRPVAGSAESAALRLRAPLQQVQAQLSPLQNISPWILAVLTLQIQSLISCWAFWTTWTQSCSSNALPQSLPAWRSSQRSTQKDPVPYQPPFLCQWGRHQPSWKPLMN

Chain of Cytochrome P450 2C9 (P11712 whole entry): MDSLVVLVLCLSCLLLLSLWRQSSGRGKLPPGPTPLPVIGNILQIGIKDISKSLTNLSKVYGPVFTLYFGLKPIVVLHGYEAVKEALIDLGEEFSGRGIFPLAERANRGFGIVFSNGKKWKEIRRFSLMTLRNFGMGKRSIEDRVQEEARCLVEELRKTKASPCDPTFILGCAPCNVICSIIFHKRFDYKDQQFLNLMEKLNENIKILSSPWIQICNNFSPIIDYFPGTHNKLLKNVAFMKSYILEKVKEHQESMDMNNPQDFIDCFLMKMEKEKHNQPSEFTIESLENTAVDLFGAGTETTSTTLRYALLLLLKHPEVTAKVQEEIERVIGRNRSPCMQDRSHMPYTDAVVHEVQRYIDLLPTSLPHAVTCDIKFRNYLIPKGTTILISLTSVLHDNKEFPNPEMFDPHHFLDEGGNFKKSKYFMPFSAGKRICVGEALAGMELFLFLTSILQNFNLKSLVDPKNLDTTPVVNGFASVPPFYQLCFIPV
Chain of Envelope glycoprotein gp160 (Q6QLK5 whole entry, the tested form may be a part): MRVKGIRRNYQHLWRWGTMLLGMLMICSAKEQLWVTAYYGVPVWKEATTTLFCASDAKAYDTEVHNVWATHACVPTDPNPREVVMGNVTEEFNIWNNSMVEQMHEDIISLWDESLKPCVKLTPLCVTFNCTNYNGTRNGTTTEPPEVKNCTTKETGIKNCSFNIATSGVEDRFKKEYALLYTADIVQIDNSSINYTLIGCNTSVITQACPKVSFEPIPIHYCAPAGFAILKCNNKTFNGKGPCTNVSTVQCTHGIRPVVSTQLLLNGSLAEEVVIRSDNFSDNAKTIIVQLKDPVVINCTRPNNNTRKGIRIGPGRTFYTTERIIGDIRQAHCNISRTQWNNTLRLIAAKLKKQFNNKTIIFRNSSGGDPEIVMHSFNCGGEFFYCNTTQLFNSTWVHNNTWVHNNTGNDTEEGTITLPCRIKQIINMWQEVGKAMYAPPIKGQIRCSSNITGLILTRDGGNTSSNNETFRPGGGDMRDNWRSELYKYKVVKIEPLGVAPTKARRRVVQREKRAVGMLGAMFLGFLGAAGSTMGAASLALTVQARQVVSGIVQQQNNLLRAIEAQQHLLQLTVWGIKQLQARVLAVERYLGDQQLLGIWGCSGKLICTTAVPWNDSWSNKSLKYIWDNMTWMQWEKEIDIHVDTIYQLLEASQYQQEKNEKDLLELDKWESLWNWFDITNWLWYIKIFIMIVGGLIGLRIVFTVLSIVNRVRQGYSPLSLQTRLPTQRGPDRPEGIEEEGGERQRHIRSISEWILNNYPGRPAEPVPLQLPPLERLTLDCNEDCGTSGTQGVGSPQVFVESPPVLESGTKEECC
Chain of Genome polyprotein (P29990 2492-3391 limits assumed): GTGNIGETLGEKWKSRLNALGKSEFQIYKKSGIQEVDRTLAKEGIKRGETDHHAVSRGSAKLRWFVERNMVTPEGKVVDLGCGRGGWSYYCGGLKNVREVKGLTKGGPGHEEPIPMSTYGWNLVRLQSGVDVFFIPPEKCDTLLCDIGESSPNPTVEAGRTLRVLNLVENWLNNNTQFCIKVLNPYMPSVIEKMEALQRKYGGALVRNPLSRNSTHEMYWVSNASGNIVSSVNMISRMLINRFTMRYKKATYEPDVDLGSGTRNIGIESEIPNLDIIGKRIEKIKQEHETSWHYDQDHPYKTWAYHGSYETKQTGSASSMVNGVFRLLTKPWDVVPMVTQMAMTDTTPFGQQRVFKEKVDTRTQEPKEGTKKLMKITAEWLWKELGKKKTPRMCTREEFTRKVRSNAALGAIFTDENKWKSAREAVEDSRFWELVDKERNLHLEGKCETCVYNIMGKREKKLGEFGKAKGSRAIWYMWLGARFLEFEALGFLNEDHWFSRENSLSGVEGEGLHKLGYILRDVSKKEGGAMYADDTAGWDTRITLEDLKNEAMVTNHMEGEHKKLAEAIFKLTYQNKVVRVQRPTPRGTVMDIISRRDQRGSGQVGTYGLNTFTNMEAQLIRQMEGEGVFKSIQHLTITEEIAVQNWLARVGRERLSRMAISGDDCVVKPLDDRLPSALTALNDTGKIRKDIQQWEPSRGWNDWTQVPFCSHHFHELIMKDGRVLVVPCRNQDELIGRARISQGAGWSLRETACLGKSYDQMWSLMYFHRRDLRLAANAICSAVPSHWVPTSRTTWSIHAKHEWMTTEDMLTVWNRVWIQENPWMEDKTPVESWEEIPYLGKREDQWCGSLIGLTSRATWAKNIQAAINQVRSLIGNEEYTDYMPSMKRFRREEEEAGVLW
Chain of G-protein coupled receptor 55 (Q9Y2T6 whole entry): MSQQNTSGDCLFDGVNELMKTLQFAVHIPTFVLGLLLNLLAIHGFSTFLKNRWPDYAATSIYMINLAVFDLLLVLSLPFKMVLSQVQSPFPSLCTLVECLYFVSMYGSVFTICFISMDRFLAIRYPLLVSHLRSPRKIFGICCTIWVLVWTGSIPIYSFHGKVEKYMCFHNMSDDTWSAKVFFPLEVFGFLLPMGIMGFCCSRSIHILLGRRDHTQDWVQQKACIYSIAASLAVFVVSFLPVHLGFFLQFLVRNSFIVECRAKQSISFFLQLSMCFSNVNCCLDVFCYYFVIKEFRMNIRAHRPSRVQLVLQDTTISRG
Chain of Phospholipase A2 (P04054 whole entry): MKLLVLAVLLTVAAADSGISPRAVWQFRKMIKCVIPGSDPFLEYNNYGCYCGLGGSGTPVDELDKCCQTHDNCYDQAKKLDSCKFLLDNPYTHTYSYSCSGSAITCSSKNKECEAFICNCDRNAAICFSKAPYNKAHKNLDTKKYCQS

Question: Which IC50 [1] does the source give for `CN1C(=O)/C(=C/c2ccc(C(=O)Nc3ccc(O)cc3C(=O)O)cc2)SC1=S` here?
Answer: 11.3 µM (active)

Question: And the IC50 (Genome polyprotein)?
Answer: 31.8 µM (active)

Question: What about the IC50 [2] of the same compound?
Answer: 55.1 µM (active)

Question: For `CC1CCN(S(=O)(=O)c2ccc3nc(N4CCN(c5ccccc5)CC4)ccc3c2)CC1`, which EC50 [3] is on record?
Answer: > 100 µM (inactive)

Question: For `COc1cc(/C=C2/C(=N)N3C=CSC3=NC2=O)ccc1OCCCOc1c(C)cccc1C`, which EC50 [4] is on record?
Answer: 4.7 µM (active)

Question: What about the IC50 (Cysteine protease ATG4B) of the same compound?
Answer: 7.86 µM (active)

Question: What about the IC50 (Phospholipase A2) of the same compound?
Answer: 3.11 µM (active)

Question: What about the AC50 (Cytochrome P450 2C9) of the same compound?
Answer: 2 µM (inconclusive)

Question: Which EC50 [5] does the source give for `CC(C)Cn1c(=O)c2ccccc2n2c(SCC(=O)N3c4ccccc4CC3C)nnc12` (stereo unspecified) here?
Answer: 36 µM (active)

Question: And the EC50 [6]?
Answer: > 120 µM (not active)

Question: What about the “Absolute IC50 (XBP1)” value (X-box-binding protein 1) of the same compound?
Answer: 10 µM
